Reference: US20250147039A1, “Compounds for complexation of rare earth elements and/or s-, p-, d- block metals, their coordination compounds, peptide conjugates, method of their preparation and use thereof” (USTAV ORGANICKE CHEMIE A BIOCHEMIE AV CR V.V.I., priority 2021, published 2025)

How the values were obtained:
[1] = Formation of 1,5-cz-[M(Lig)] from Lig and M^III ions (metal dependent click-zip) (Charts 4, 5); assay type: physicochemical; conditions: MOPS/NaOH buffer pH 7.0, TD728, TD827 in 50% i-PrOH; for conversion to 1,5-cz-[M(Lig)], Y^III: TD714 sum of two diastereoisomers
[2] = pH dependent formation of 1,5- and 1,4-cz-Lig isomers from Lig (pH dependent click-zip) (Chart 13); assay type: physicochemical
[3] = Alkali metal dependent formation of 1,5-cz-Lig and 1,4-cz-Lig isomers from Lig at pH 10.2 (Chart 14); assay type: physicochemical; conditions: Borate/(M^I)2CO3 buffer pH 10.2
[4] = Formation of 1,5-cz-[Ln(Lig)] from Lig and Ln^III ions (metal dependent click-zip), MOPS/NaOH buffer pH 7.0, analytical HPLC (Charts 1, 2); conditions: MOPS/NaOH buffer pH 7.0
[5] = A: 1 hour at 80° C., 0.1M HClO4 (pH ~1)
[6] = A: 1 hour at 80° C., 1.0M HClO4 (pH ~0)
[7] = A: 1 hour at 80° C., pH 2.2, 50 mM aq. buffer
[8] = A: 1 hour at 80° C., pH 3.0, 50 mM aq. buffer
[9] = A: 1 hour at 80° C., pH 3.8, 50 mM aq. buffer
[10] = A: 1 hour at 80° C., pH 4.6, 50 mM aq. buffer
[11] = A: 1 hour at 80° C., pH 5.4, 50 mM aq. buffer
[12] = A: 1 hour at 80° C., pH 6.2, 50 mM aq. buffer
[13] = A: 1 hour at 80° C., pH 7.0, 50 mM aq. buffer
[14] = A: 1 hour at 80° C., pH 8.6, 50 mM aq. buffer
[15] = A: 1 hour at 80° C., pH 9.4, 50 mM aq. buffer
[16] = A: 1 hour at 80° C., pH 10.2, 50 mM aq. buffer
[17] = B: 1 day at 80° C., 0.1M HClO4 (pH ~1)
[18] = B: 1 day at 80° C., 1.0M HClO4 (pH ~0)
[19] = B: 1 day at 80° C., pH 2.2, 50 mM aq. buffer
[20] = B: 1 day at 80° C., pH 3.0, 50 mM aq. buffer
[21] = B: 1 day at 80° C., pH 3.8, 50 mM aq. buffer
[22] = B: 1 day at 80° C., pH 4.6, 50 mM aq. buffer
[23] = B: 1 day at 80° C., pH 5.4, 50 mM aq. buffer
[24] = B: 1 day at 80° C., pH 6.2, 50 mM aq. buffer
[25] = B: 1 day at 80° C., pH 7.0, 50 mM aq. buffer
[26] = B: 1 day at 80° C., pH 8.6, 50 mM aq. buffer
[27] = B: 1 day at 80° C., pH 9.4, 50 mM aq. buffer
[28] = B: 1 day at 80° C., pH 10.2, 50 mM aq. buffer
[29] = B: 1 day at 80° C., visible analyte free precipitate

## C#CCNC(=O)CN1CCN(CC(=O)O)CCN(Cc2cc(-c3ccccc3)cc(CN=[N+]=[N-])n2)CCN(CC(=O)O)CC1 [TD425]
[1]; 1 week at 80° C.
  conversion to 1,5-cz-[M(Lig)], Sc^III: 0%
  conversion to 1,5-cz-[M(Lig)], Y^III: 0%
[1]; 1 hour at 80° C.
  conversion to 1,5-cz-[M(Lig)], Sc^III: 0%
  conversion to 1,5-cz-[M(Lig)], Y^III: 0%
[2]; [5]
  conversion to 1,4-cz-Lig isomer: 0%
  conversion to 1,5-cz-Lig isomer: 13%
[2]; [6]
  conversion to 1,4-cz-Lig isomer: 0%
  conversion to 1,5-cz-Lig isomer: 13%
[2]; [7]
  conversion to 1,4-cz-Lig isomer: 0%
  conversion to 1,5-cz-Lig isomer: 13%
[2]; [8]
  conversion to 1,4-cz-Lig isomer: 0%
  conversion to 1,5-cz-Lig isomer: 10%
[2]; [9]
  conversion to 1,4-cz-Lig isomer: 0%
  conversion to 1,5-cz-Lig isomer: 3%
[2]; [10]
  conversion to 1,4-cz-Lig isomer: 0%
  conversion to 1,5-cz-Lig isomer: 1%
[2]; [11]
  conversion to 1,4-cz-Lig isomer: 0%
  conversion to 1,5-cz-Lig isomer: 1%
[2]; [12]
  conversion to 1,4-cz-Lig isomer: 0%
  conversion to 1,5-cz-Lig isomer: 0%
[2]; [13]
  conversion to 1,4-cz-Lig isomer: 0%
  conversion to 1,5-cz-Lig isomer: 0%
[2]; [14]
  conversion to 1,4-cz-Lig isomer: 0%
  conversion to 1,5-cz-Lig isomer: 0%
[2]; [15]
  conversion to 1,4-cz-Lig isomer: 0%
  conversion to 1,5-cz-Lig isomer: 1%
[2]; [16]
  conversion to 1,4-cz-Lig isomer: 0%
  conversion to 1,5-cz-Lig isomer: 1%
[2]; [17]
  conversion to 1,4-cz-Lig isomer: 0%
  conversion to 1,5-cz-Lig isomer: 90%
[2]; [18]
  conversion to 1,4-cz-Lig isomer: 0%
  conversion to 1,5-cz-Lig isomer: 88%
[2]; [19]
  conversion to 1,4-cz-Lig isomer: 0%
  conversion to 1,5-cz-Lig isomer: 93%
[2]; [20]
  conversion to 1,4-cz-Lig isomer: 0%
  conversion to 1,5-cz-Lig isomer: 89%
[2]; [21]
  conversion to 1,4-cz-Lig isomer: 0%
  conversion to 1,5-cz-Lig isomer: 57%
[2]; [22]
  conversion to 1,4-cz-Lig isomer: 0%
  conversion to 1,5-cz-Lig isomer: 15%
[2]; [23]
  conversion to 1,4-cz-Lig isomer: 0%
  conversion to 1,5-cz-Lig isomer: 6%
[2]; [24]
  conversion to 1,4-cz-Lig isomer: 1%
  conversion to 1,5-cz-Lig isomer: 6%
[2]; [25]
  conversion to 1,4-cz-Lig isomer: 4%
  conversion to 1,5-cz-Lig isomer: 8%
[2]; [26]
  conversion to 1,4-cz-Lig isomer: 5%
  conversion to 1,5-cz-Lig isomer: 10%
[2]; [27]
  conversion to 1,4-cz-Lig isomer: 4%
  conversion to 1,5-cz-Lig isomer: 11%
[2]; [28]
  conversion to 1,4-cz-Lig isomer: 2%
  conversion to 1,5-cz-Lig isomer: 12%
[3]; A: 1 hour at 80° C.
  conversion to 1,4-cz-Lig isomer, Cs^I: 1%
  conversion to 1,4-cz-Lig isomer, K^I: 1%
  conversion to 1,4-cz-Lig isomer, Li^I: 0%
  conversion to 1,4-cz-Lig isomer, Na^I: 0%
  conversion to 1,4-cz-Lig isomer, Rb^I: 1%
  conversion to 1,5-cz-Lig isomer, Cs^I: 1%
  conversion to 1,5-cz-Lig isomer, K^I: 0%
  conversion to 1,5-cz-Lig isomer, Li^I: 0%
  conversion to 1,5-cz-Lig isomer, Na^I: 1%
  conversion to 1,5-cz-Lig isomer, Rb^I: 1%
[3]; B: 1 day at 80° C.
  conversion to 1,4-cz-Lig isomer, Cs^I: 10%
  conversion to 1,4-cz-Lig isomer, K^I: 10%
  conversion to 1,4-cz-Lig isomer, Na^I: 1%
  conversion to 1,4-cz-Lig isomer, Rb^I: 10%
  conversion to 1,5-cz-Lig isomer, Cs^I: 11%
  conversion to 1,5-cz-Lig isomer, K^I: 10%
  conversion to 1,5-cz-Lig isomer, Na^I: 9%
  conversion to 1,5-cz-Lig isomer, Rb^I: 10%
[3]; [29]
  conversion to 1,4-cz-Lig isomer, Li^I: 0%
  conversion to 1,5-cz-Lig isomer, Li^I: 2%
[4]; after 1 week at 80° C.
  conversion to 1,5-cz-[Ln(Lig)], Ce^III: 0%
  conversion to 1,5-cz-[Ln(Lig)], Dy^III: 0%
  conversion to 1,5-cz-[Ln(Lig)], Er^III: 0%
  conversion to 1,5-cz-[Ln(Lig)], Eu^III: 0%
  conversion to 1,5-cz-[Ln(Lig)], Gd^III: 0%
  conversion to 1,5-cz-[Ln(Lig)], Ho^III: 0%
  conversion to 1,5-cz-[Ln(Lig)], La^III: 0%
  conversion to 1,5-cz-[Ln(Lig)], Lu^III: 0%
  conversion to 1,5-cz-[Ln(Lig)], Nd^III: 0%
  conversion to 1,5-cz-[Ln(Lig)], Pr^III: 0%
  conversion to 1,5-cz-[Ln(Lig)], Sm^III: 0%
  conversion to 1,5-cz-[Ln(Lig)], Tb^III: 0%
  conversion to 1,5-cz-[Ln(Lig)], Tm^III: 0%
  conversion to 1,5-cz-[Ln(Lig)], Yb^III: 0%
[4]; after 1 hour at 80° C.
  conversion to 1,5-cz-[Ln(Lig)], Ce^III: 0%
  conversion to 1,5-cz-[Ln(Lig)], Dy^III: 0%
  conversion to 1,5-cz-[Ln(Lig)], Er^III: 0%
  conversion to 1,5-cz-[Ln(Lig)], Eu^III: 0%
  conversion to 1,5-cz-[Ln(Lig)], Gd^III: 0%
  conversion to 1,5-cz-[Ln(Lig)], Ho^III: 0%
  conversion to 1,5-cz-[Ln(Lig)], La^III: 0%
  conversion to 1,5-cz-[Ln(Lig)], Lu^III: 0%
  conversion to 1,5-cz-[Ln(Lig)], Nd^III: 0%
  conversion to 1,5-cz-[Ln(Lig)], Pr^III: 0%
  conversion to 1,5-cz-[Ln(Lig)], Sm^III: 0%
  conversion to 1,5-cz-[Ln(Lig)], Tb^III: 0%
  conversion to 1,5-cz-[Ln(Lig)], Tm^III: 0%
  conversion to 1,5-cz-[Ln(Lig)], Yb^III: 0%
